In ChEMBL document CHEMBL3228028, “Enzyme affinity of the 5,6-dihydro derivatives of the substrate and product of thymidylate synthetase catalysis” (J Med Chem, 1979):

Assays:
Thymidylate synthase [1] = molecular target: T1, Thymidylate synthase (Lactobacillus casei, UniProt P00469); test: Competitive inhibition of Lactobacillus casei thymidylate synthetase using dTMP as substrate assessed as release of water after 15 mins by double reciprocal plot analysis; design: species or system Lacticaseibacillus casei
T1 sequence (P00469 whole entry): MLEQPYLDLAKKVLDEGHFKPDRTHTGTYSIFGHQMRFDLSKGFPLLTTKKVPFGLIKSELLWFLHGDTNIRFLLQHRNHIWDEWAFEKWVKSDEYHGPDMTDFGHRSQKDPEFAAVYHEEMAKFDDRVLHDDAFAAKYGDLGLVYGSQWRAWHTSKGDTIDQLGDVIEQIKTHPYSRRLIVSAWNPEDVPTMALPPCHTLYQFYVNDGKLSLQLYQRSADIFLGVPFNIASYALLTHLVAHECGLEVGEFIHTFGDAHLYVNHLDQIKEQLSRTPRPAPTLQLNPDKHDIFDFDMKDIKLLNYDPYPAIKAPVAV

Thymidylate synthase [2] = molecular target: T1, Thymidylate synthase; test: Competitive inhibition of Lactobacillus casei thymidylate synthetase using 2'-deoxy[5-3H]uridine-5'-phosphate as substrate assessed as release of water after 15 mins by double reciprocal plot analysis; design: species or system Lacticaseibacillus casei

Ki (Thymidylate synthase [1]) | Ki (Thymidylate synthase [2]) | Compound
2.8 µM | 100 µM | O=C1CCN([C@H]2C[C@H](O)[C@@H](COP(=O)(O)O)O2)C(=O)N1
 | 150 µM | CC1CN([C@H]2C[C@H](O)[C@@H](COP(=O)(O)O)O2)C(=O)NC1=O (stereo partly drawn)
